In brackets after ≈: the same amount, converted by molar mass.
Conditions: buffer; pH 7.4; 200.0 µM

Structure (SMILES) | solubility kinetic [µg/mL]
COc1cc(SC)ccc1C(=O)OCC(=O)N1CC(=O)Nc2ccccc21 | 17.6 (≈ 45.5 µM)
COc1ccc(S(=O)(=O)NC2CCCC2)cc1NC(C)=O | > 46.9
Cc1[nH]c2ccc(C(=O)NC3CCC(C)CC3)cc2c1C (stereo unspecified) | 0.9 (≈ 3.16 µM)
O=C(Nc1nccs1)C1CC(=O)N(c2ccc(Cl)cc2)C1 (stereo unspecified) | 4.1 (≈ 12.7 µM)
CN1CCC(NC(=S)Nc2cccc([N+](=O)[O-])c2)CC1 | > 44.2
Cc1ccc(NC(=O)CSc2ccc3c(c2)OCCO3)c(O)c1 | 36.9 (≈ 111 µM)
COc1ccc(CCC(=O)OCC(=O)NC(=O)c2ccc(Cl)cc2)cc1 | 7.2 (≈ 19.2 µM)
COc1ccc(NC(=O)c2ccccc2NC(=O)c2ccco2)cc1 | < 0.4
Cc1cc(C(=O)O)ccc1N=Cc1c(O)ccc2ccccc12 | > 45.8
COc1ccc(Cl)cc1NC(=O)CN1CCc2ccccc2C1 | < 0.4
CCC(CC)NC(=O)c1cccc(Oc2ccccc2)c1 | 5.2 (≈ 18.4 µM)
C=CCc1cccc(CNc2ccc(Br)cc2)c1O | 1.4 (≈ 4.4 µM)
CCCn1c(C)nnc1SCC(=O)NC1CCCCC1 | > 44.5
Cc1nc2c(C)c(C)c(C)c(C)c2nc1C | < 0.2
COC(=O)c1ccc(CNC(=O)C23CC4CC(CC(C4)C2)C3)cc1 | 6.2 (≈ 18.9 µM)
Cc1cc(=O)oc2cc(OCC(=O)OC(C)C(=O)Nc3ccc(S(N)(=O)=O)cc3)ccc12 (stereo unspecified) | > 69.1
COc1ccc(NC(=O)Nc2ccccc2SC)cc1OC | 0.6 (≈ 1.88 µM)
CCOC(=O)/C(C#N)=C/C1=C(N2CCOCC2)CC(C)(C)OC1 | > 48.1
O=C(COC(=O)COc1ccccc1F)NC1CC1 | 37 (≈ 138 µM)
O=C(c1cc2cc(C(F)(F)F)ccc2s1)N1CCOCC1 | > 47.3
Cc1ccccc1NC(=O)c1cccc(S(=O)(=O)Nc2cccc(C(=O)O)c2)c1 | 34.6 (≈ 84.3 µM)
O=C(O)/C=C/C(=O)NCCc1cccc(Cl)c1 | > 38.1

Structure (SMILES) | solubility kinetic [µg/mL]
Cc1c(NC(=O)c2ccc(-c3ccccc3)cc2)cccc1C(=O)O | 42.3 (≈ 128 µM)
COc1cc(NC(=O)CCN2CCN(C)CC2)cc(OC)c1 | > 46.1
COc1ccccc1CNC(=O)COC(=O)c1nccnc1N | 39.7 (≈ 126 µM)
CCOc1ccc(N(C(=O)C2CCCO2)C2C=CS(=O)(=O)C2)cc1 (stereo unspecified) | > 52.7
CCOC(=O)CC1C(=O)NCCN1Cc1ccc(OC)c(OC)c1 (stereo unspecified) | > 50.5
O=C(OCC(=O)N1CCOCC1)c1ccccc1O | 29.8 (≈ 112 µM)
Nc1cc(C(F)(F)F)ccc1OCC1CCCO1 (stereo unspecified) | 32.8 (≈ 126 µM)
Cc1ccc(OCCn2c(C)nc3ccccc32)cc1 | 9.6 (≈ 36 µM)
CC(=O)N1CCN(C(=O)c2ccc3c(c2)OCCO3)CC1 | > 43.5
COc1ccc(C(C)NC(=O)Nc2ccc(C(C)=O)cc2)cc1OC (stereo unspecified) | 47 (≈ 137 µM)
CCn1cc(CCC(=O)O)c(C)n1 | > 27.3
CCCC(=O)NCc1nc2ccccc2n1CC(=O)c1ccccc1 | > 50.3
COc1ccc(CC(=O)Oc2ccc(C#N)cc2)cc1 | > 40.1
CCn1c(SCC(N)=O)nnc1-c1ccc2c(c1)OCO2 | > 46
CC(=O)c1cccc(OCC(=O)OCC(=O)Nc2cc(S(=O)(=O)N3CCCCC3)ccc2C)c1 | 61.5 (≈ 126 µM)
CC1CC(=O)N(c2ccc(Br)cc2)C(=O)C1 | > 42.3
CN(Cc1ccccc1)C(=O)CC(=O)N(C)Cc1ccccc1 | > 46.6
COc1ccc(NC(=O)COC(=O)c2ccc(F)cc2F)cc1 | > 48.2
CCN(CC)S(=O)(=O)c1cc(NC(=O)CSCc2c(C)noc2C)ccc1C | > 63.8
Cc1ccc(NC(=O)c2ccc(Cl)nc2)cc1 | 9.3 (≈ 37.7 µM)
O=C(CCc1c[nH]c2ccccc12)NCCc1ccc(Cl)cc1 | 4.2 (≈ 12.9 µM)
COc1ccc(S(=O)(=O)n2c([N+](=O)[O-])cnc2C)c(C)c1C | 45.2 (≈ 139 µM)

Structure (SMILES) | solubility kinetic [µg/mL]
Cc1ccc(OCc2nc(-c3cccs3)no2)c([N+](=O)[O-])c1 | 0.9 (≈ 2.84 µM)
NC(=O)c1ccc(=O)n(Cc2ccc(Cl)cc2Cl)c1 | > 44.6
Cc1nc2ccccc2n1C1CCN(C(=O)Nc2ccccc2)CC1 | > 50.2
Clc1ccc(-c2cc(CN3CCOCC3)no2)cc1 | > 41.8
COCCCNC(=S)Nc1cc2oc3ccccc3c2cc1OC | 3.9 (≈ 11.3 µM)
CC(C)[C@H](NC(=O)c1ccccc1)C(=O)OCC(=O)c1c(N)n(C)c(=O)n(C)c1=O | > 62.5
O=C1NCCN1Cc1ccc(Cl)cc1 | 26.3 (≈ 125 µM)
O=C(CSc1nc2ccccc2c(=O)n1-c1ccccc1F)N1CCOCC1 | 54.3 (≈ 136 µM)
Cc1ccc(C(C)NC(=O)c2cccnc2)cc1 (stereo unspecified) | 33.5 (≈ 139 µM)
NC(=O)C1Cc2ccccc2CN1S(=O)(=O)c1cccs1 (stereo unspecified) | > 48.4
O=C(NCC1CCCO1)c1ccc(-c2cccc(C(F)(F)F)c2)o1 (stereo unspecified) | 38.4 (≈ 113 µM)
COc1cc2c(cc1OC)C(c1ccccc1C)CC(=O)N2 (stereo unspecified) | < 0.6
CCn1c(=NC(=O)C2COc3ccccc3O2)sc2c(C)ccc(OC)c21 (stereo unspecified) | < 0.4
COc1ccc(C)cc1S(=O)(=O)NCc1cccs1 | 42.4 (≈ 143 µM)
CN(C)c1cc[n+](CC(=O)Nc2ccc(OC(F)F)cc2)cc1.[Cl-] | > 53.7
CCOC(=O)CN1N=C(c2ccc(C)cc2)CCC1=O | > 41.1
COc1cc(NC(C)CCc2ccccc2)cc(OC)c1OC (stereo unspecified) | > 47.3
O=C(Nc1ccccc1)c1ccccc1NC(=O)c1ccccc1[N+](=O)[O-] | 7.5 (≈ 20.8 µM)
Cc1ccc(S(=O)(=O)Nc2ccc(Nc3ccccc3)cc2)cc1 | 2.5 (≈ 7.39 µM)
O=C(/C=C/c1ccc(F)cc1)N1CCN(Cc2ccccc2)CC1 | 44.5 (≈ 137 µM)
COc1ccc(/C=N/OCc2ccccc2C#N)c(OC)c1 | 0.4 (≈ 1.35 µM)
COc1ccc(C(=O)O)cc1S(=O)(=O)NC(C)(C)C | > 43.1

Structure (SMILES) | solubility kinetic [µg/mL]
Cn1cc(CCC(=O)NC2CC2)c2ccccc21 | > 36.3
COc1cccc(C(=O)NCC(=O)OCC(=O)NC2CCCCC2)c1 | > 52.3
COc1ccc(C(=O)C[N+]2(C)CCOCC2)cc1.[I-] | > 37.5
N#Cc1c(Cl)nsc1NCCN1CCOCC1 | > 40.9
Cc1csc(SCC(=O)NC2CCCC2)n1 | > 38.5
O=C(Nc1ccccc1C(=O)NCCCN1CCOCC1)c1ccc(F)cc1F | 59.6 (≈ 148 µM)
CCCn1c(C(O)c2cccc(OC)c2)nc2ccccc21 (stereo unspecified) | 39.4 (≈ 133 µM)
OC(CNCc1ccccc1F)COc1cccc2ccccc12 (stereo unspecified) | 39.6 (≈ 122 µM)
CC(O)CCC(=O)NNC(=S)Nc1ccccc1 (stereo unspecified) | > 40.1
O=C(C1CCN(S(=O)(=O)c2ccccc2)CC1)N1CCCCC1 | 50.4 (≈ 150 µM)
Cc1cc2nc(C)c3c(n2n1)CCC3 | > 28.1
O=C1Nc2ccccc2S/C1=C/c1cccs1 | < 0.6
CC1CCc2sc(C(=O)Nc3ccc(C(N)=O)cc3)cc2C1 (stereo unspecified) | 3.4 (≈ 10.8 µM)
O=S(=O)(NCCCc1ccccc1)c1ccc(Br)cc1 | 10.7 (≈ 30.2 µM)
CC1CCN(C(=O)COC(=O)CCC(=O)c2ccc(F)cc2)CC1 | > 50.3
C=CCN(c1ccccc1OC)S(=O)(=O)c1cccc(C(=O)NC2=NCCS2)c1 | 7.4 (≈ 17.1 µM)
Clc1cccc(Nc2nc(-c3ccncc3)nc3ccccc23)c1 | < 0.2
Cc1cc(-c2ccc(S(=O)(=O)N3CCCCC3)s2)on1 | 2.6 (≈ 8.32 µM)
O=C(O)CC(c1cccc(O)c1)N1Cc2ccccc2C1=O (stereo unspecified) | > 44.6
CCN(CC)Cc1ccccn1.Cl | 29.2

Reference: PubChem BioAssay AID1996
